In patent US20190134039A1, “ANTIVIRAL JAK INHIBITORS USEFUL IN TREATING OR PREVENTING RETROVIRAL AND OTHER VIRAL INFECTIONS” (EMORY UNIVERSITY, priority 2011, published 2019):
Entries after “also recorded” stand apart in the source; their conditions may differ. Like-named read-outs stand apart in the source and are kept apart here.

Experiments:
HIV-1LAI = assay: microbe, parasite or virus in culture; conditions: for EC90: read-out: Anti-HIV-1 EC90 in acutely infected PBM cells
Text: PBM cells were isolated as follows: Lymphocytes were isolated from buffy coats derived from healthy donors obtained from Life South Laboratories (Dunwoody, Ga.). Activated lymphocytes were maintained for 72 hrs in medium that was supplemented with […] phytohemagglutinin (PHA) (Cape Cod associates, East Falmouth, Mass.). Media was comprised of RPMI media supplemented with 20% fetal calf serum, 1% penicillin/streptomyocin and 2% L-glutamine (Sigma Aldrich, San Jose, Calif.).
PBM cell infections: Testing was performed in duplicate with at least 3 independent assays. Cells were incubated in RPMI medium (HyClone, Logan, Utah) containing HR-IL2 (26.5 units/ml) and 20% fetal calf serum. Infections were performed by adding HIV-1LA1 followed by a further incubation at 37° C., 5% CO2, 1 hr prior to addition of drugs. Assays were performed in 24 well plates (BD Biosciences, Franklin Lakes, N.J.). One ml of supernatant was collected after 5 days in culture and then centrifuged at 12,000 rpm for 2 hr at 4° C. in a Jouan Br43i (Thermo Electron Corp., Marietta, Ohio). The product of the RT assay was quantified using a Packard harvester and direct beta counter and the data were analyzed as previously described (Schinazi et al, 1990).

HIV-1BaL = assay: microbe, parasite or virus in culture; conditions: for EC90: read-out: Anti-HIV-1 EC90 in acutely infected MΦ
Procedure: Macrophages were isolated as follows: Monocytes were isolated from buffy coats of HIV-1 negative, HBV/HCV-negative donors with density gradient centrifugation coupled with enrichment for CD14+ monocytes with Rosette Sep antibody cocktail (Stem Cell Technologies, Vancouver, British Columbia). Cells were seeded at a concentration of 1.0×10^6 cells/well for 1 hr at 37° C. and 5% CO2 to confer plastic adherence prior to repeated washes with 1×PBS. Macrophages were maintained in medium containing 100 U/ml macrophage colony-stimulating factor (m-CSF, R&D Systems, Minneapolis, Minn.), supplemented with 20% fetal calf serum (Atlanta Biologicals, Lawrenceville, Ga.) and 1% penicillin/streptomyocin (Invitrogen, Carlsbad, Calif.) for 7 days (37° C., 5% CO2) prior to testing.
Macrophage infections: Macrophages were cultured as described above for 7 days. […] 4 hrs after infection, virus was removed and drug-containing medium was returned to the cultures. Supernatants were collected on day 7 post-infection and HIV-1 p24 was quantified via ELISA (Zeptometrix Corporation, Buffalo, N.Y.). EC50 analysis was performed using CalcuSyn software (BioSoft Corporation, Cambridge, UK).

PHA + IL-2 PBM cells = assay: cells; conditions: Homo sapiens, PBMC, read-out: IC50 in PHA + IL-2 PBM cells *MTT Assay
PHA stimulated PBM cells = assay: cells; conditions: Homo sapiens, PBMC, read-out: IC50 in PHA stimulated PBM cells *MTT Assay
Mφ = assay: cells; conditions: Homo sapiens, read-out: IC50 in Mφ *MTT Assay
[1] = system: acute infection in rhesus macaque lymphocytes; assay: cells; conditions: Macaca mulatta, Lymphocyte; for EC90: read-out: Acute infection in rhesus macaque lymphocytes EC90
Text: (§1) The data (Shown in Table 5 below) are mean and standard deviations from at least three independent experiments.

[2] = system: acute infection in rhesus macaque macrophages; assay: cells; conditions: for EC90: read-out: Acute infection in rhesus macaque macrophages EC90
Text: as §1

wild-type HIV-1xxLAI = assay: Antiviral potency in primary human lymphocytes, wild type; assay type: cell-based; conditions: Human immunodeficiency virus 1, Lymphocyte; xxLAI; primary human lymphocytes; read-out: EC90
HIV-1 containing M184V = assay: microbe, parasite or virus in culture; assay type: cell-based; conditions: Human immunodeficiency virus 1, Lymphocyte
HIV-1 containing K65R = assay: microbe, parasite or virus in culture; assay type: cell-based; conditions: Human immunodeficiency virus 1, Lymphocyte
HIV-1 containing L74V = assay: microbe, parasite or virus in culture; assay type: cell-based; conditions: Human immunodeficiency virus 1, Lymphocyte
[3] = system: HIV-1 containing A62V/V75I/F77L/F116Y/Q151M; assay: microbe, parasite or virus in culture; assay type: cell-based; conditions: Human immunodeficiency virus 1, Lymphocyte
[4] = system: HIV-1 containing 4xAZT (D67N/K70R/T215Y/K219Q); assay: microbe, parasite or virus in culture; assay type: cell-based; conditions: Human immunodeficiency virus 1, Lymphocyte
PBM cells = assay: cells; conditions: Homo sapiens, PBMC, read-out: IC50 in PBM cells *Propidium Iodide assay
HIV-2 = assay: microbe, parasite or virus in culture; conditions: Human immunodeficiency virus 2, PBMC; for EC90: read-out: Anti-HIV-2 EC90 in acutely infected PBM cells
latent HIV-1 [5] = assay: Reactivation of latent HIV-1 in primary human macrophages (PMA, p24 ELISA); assay type: cell-based; conditions: drug applied during reactivation, removed thereafter, within 72 hr post reactivation
activated PBM cells = assay type: cell-based, human
Text: The data is shown in FIG. 2, in terms of total cell number (10^6 cells) versus aM drug in medium.
The data is shown in FIG. 3, in terms of cell viability (%) versus aM drug in medium.

[6] = system: various NRTI-resistant HIV-1; assay: Antiviral potency against various NRTI-resistant HIV-1 in primary human lymphocytes (summary over strains); assay type: cell-based; conditions: K65R, M184V, L74V, A62V/V75I/F77L/F116Y/Q151M, 4xAZT
Text: FI50 is the ratio of EC50 against mutant virus:EC50 against wild-type xxLAI. FI90 is the ratio of EC90 against mutant virus:EC90 against wild-type xxLAI.

[7] = system: PHA stimulated primary human lymphocytes; assay: Proliferation and viability of PHA stimulated primary human lymphocytes; assay type: cell-based; conditions: 5 days, all concentrations
Procedure: (§2) The effect of various Jak inhibitors on proliferation and viability of PHA or PHA+IL-2 stimulated primary human lymphocytes was evaluated using the techniques described above.
(§3) For all experiments, cells were incubated with media alone or drug-containing medium for 5 days prior to assessment of cell count and viability. Data are mean and standard deviations for at least three independent experiments conducted with at least 4 pooled donors, and duplicates within each experiment.

[8] = system: PHA+IL-2 stimulated primary human lymphocytes; assay: Proliferation and viability of PHA+IL-2 stimulated primary human lymphocytes; assay type: cell-based; conditions: PHA+IL-2 stimulated lymphocytes, 5 days
Procedure: as §2, §3

integrated viral DNA = assay: Integrated viral DNA in CD4 T cells from viremic donors (Alu PCR); assay type: cell-based; conditions: CD4 T cells from HIV-infected individuals; alone and in the presence of HAART
Procedure: (§4) FIGS. 11 A-E are graphicals showing that Jak inhibitors reduce frequency of cells harboring integrated viral DNA and IL-15-induced reactivation of latent HIV-1 in CD4 T cells. CD4 T cells were isolated from viremic donors and incubated with CD3/CD28 plus 0.01, 0.1, 1.0 or 10 μM of Jak inhibitors with or without EC99 of ART (180 nM zidovudine, 100 nM efavirenz, 200 nM Raltegravir) (A and B). After six days, integrated viral DNA was quantified using ultra sensitive Alu PCR versus DMSO controls (n=5). 0.01 μM represents the average of all assays completed using % DMSO equivalent to Jak inhibitor concentrations. Error bars represent S.E.M. and statistical significance determined by two-way ANOVA followed by Sidak's multiple comparison post-test: *p<0.05, **p<0.01, ***p<0.001 and ****p<0.0001 for A and B. In panel C-E, memory CD4^+ T cells were isolated from ART treated aviremic donors (n=3), activated with 10 ng/ml IL-15 (panel D) or CD3/CD28 (panel E) and maintained with or without 1 μM ruxolitinib in the presence of ART. Six days post reactivation, extracellular viral RNA copies were quantified by qRT-PCR (*p<0.01, one-way ANOVA).

latent HIV-1 [9] = assay: Reactivation of latent HIV-1 in memory CD4+ T cells from ART treated aviremic donors; assay type: cell-based; conditions: CD4 T cells from HIV-infected individuals; alone and in the presence of HAART
Procedure: as §4

pSTAT1 = conditions: primary CD4+T lymphocytes
pSTAT3 [10] = conditions: primary CD4+T lymphocytes
pSTAT5 = conditions: primary CD4+T lymphocytes
pSTAT3 [11] = assay: cells; conditions: read-out: EC90 pSTAT3
[12] = Human immunodeficiency virus 1, PBMC, in Homo sapiens
[13] = Human immunodeficiency virus 1, Macrophage, in Homo sapiens

## Cc1cn([C@H]2C[C@H](N=[N+]=[N-])[C@@H](CO)O2)c(=O)[nH]c1=O [AZT, 3′-azido-3′-deoxythymidine]
HIV-1LAI; Human immunodeficiency virus 1, PBMC, in Homo sapiens, read-out: Anti-HIV-1 EC50 in acutely infected PBM cells
  EC50: 20 ± 8 nM
HIV-1LAI; [12]
  EC90: 130 ± 30 nM
HIV-1BaL; Human immunodeficiency virus 1, Macrophage, in Homo sapiens, read-out: Anti-HIV-1 EC50 in acutely infected MΦ
  EC50: 10 ± 20 nM
HIV-1BaL; [13]
  EC90: 70 ± 120 nM
PHA + IL-2 PBM cells
  CC50: > 100000 nM
PHA stimulated PBM cells
  IC50: > 100000 nM
Mφ
  IC50: > 100000 nM
[1]; read-out: Acute infection in rhesus macaque lymphocytes EC50
  EC50: 2 ± 1 nM
[1]
  EC90: 30 ± 20 nM
[2]; Macaca mulatta, Macrophage, read-out: Acute infection in rhesus macaque macrophages EC50
  EC50: 80 ± 100 nM
[2]; Macaca mulatta, Macrophage
  EC90: 900 ± 700 nM
wild-type HIV-1xxLAI
  EC90: 100 ± 80 nM
HIV-1 containing M184V
  EC50: 10 ± 20 nM
  EC90: 20 ± 10 nM
HIV-1 containing K65R
  EC50: 40 ± 20 nM
  EC90: 300 ± 100 nM
HIV-1 containing L74V
  EC50: 20 ± 20 nM
  EC90: 200 ± 100 nM
[3]
  EC50: 4600 ± 7700 nM
  EC90: 41200 ± 50200 nM
[4]
  EC50: 100 ± 100 nM
  EC90: 53300 ± 66100 nM
PBM cells
  IC50: > 50000 nM
HIV-2; read-out: Anti-HIV-2 EC50 in acutely infected PBM cells
  EC50: 1 ± 0.8 nM
HIV-2
  EC90: 10 ± 10 nM

## C[C@@H]1CCN(C(=O)CC#N)C[C@@H]1N(C)c1ncnc2[nH]ccc12 [Tofacitinib, 3-{(3R,4R)-4 methyl-3-[methyl-(7H-pyrrolo[2,3-d]pyrimidin-4-yl)-amino]-piperidin-1-yl}-3-oxo-propionitrile]
HIV-1LAI; [12]
  EC90: 17100 ± 15100 nM
HIV-1LAI; PBM cells
  inhibition of HIV-1 replication: sub-micromolar
HIV-1BaL; [13]
  EC90: 2900 ± 1400 nM
HIV-1BaL; MØ cells
  inhibition of HIV-1 replication: sub-micromolar
[1]
  EC90: 2900 ± 500 nM
[2]; Macaca mulatta, Macrophage
  EC90: ~4000 nM
[2]
  EC90: 3100 ± 900 nM
wild-type HIV-1xxLAI
  EC90: 28400 ± 16700 nM
HIV-1 containing M184V
  EC90: 27100 ± 15700 nM
HIV-1 containing K65R
  EC90: 81200 ± 26700 nM
HIV-1 containing L74V
  EC90: 47700 ± 45300 nM
[3]
  EC90: 8900 ± 8800 nM
[4]
  EC90: 17100 ± 4500 nM
Latent HIV-1 [5]
  percent inhibition of reactivation of latent HIV-1 versus no drug control: ~40%
Activated PBM cells
  total cell proliferation (total cell number): do not affect total cell proliferation
  total cell viability: do not affect total cell viability
[6]
  FI50 or FI90 versus wild type HIV-1xxLAI: not significant increase; also recorded: did not display a significant difference
  antiviral potency for wild-type HIV-1xxLAI versus NRTI-resistant HIV-1: not significantly different
[7]
  proliferation versus cells exposed to media alone: not significantly different
  viability versus cells exposed to media alone: not significantly different
[8]; 1.0 μM
  proliferation versus cells exposed to media alone: significantly inhibited
[8]; all concentrations
  viability versus cells exposed to media alone: not significantly different
Integrated viral DNA
  size of the HIV reservoir: decay the size of the HIV reservoir
Latent HIV-1 [9]
  reservoir reactivation: block reservoir reactivation
pSTAT1
  concentrations inhibiting IFN-α induced phosphorylation of STAT1: sub-micromolar
pSTAT3 [10]
  concentrations inhibiting IFN-α induced phosphorylation of STAT3: sub-micromolar
pSTAT5
  concentrations inhibiting IFN-α induced phosphorylation of STAT5: sub-micromolar
pSTAT3 [11]
  EC90: 900 nM
HIV-2
  EC90: 1800 ± 1100 nM
